“Also recorded” adds a separate entry of the source. Non-standard residues stand in square brackets, D forms with d. Residues, ends and D or L forms follow the SMILES beside them. *: point of attachment. Butyryl = CCCC(=O)*
How the values were obtained:
[1] = tested on: X. axonopodis pv. vesicatoria strain 206 on tomato plants (cv. Rio grande); assay: Bacterial spot of tomato, whole-plant infection assay; assay type: in vivo; conditions: peptide sprayed at 125 μM 24 h before inoculation with 10^8 CFU/mL, severity 13 days after inoculation, two independent experiments, three replicates of three plants, Tukey's test P < 0.05
Description: The effect of the peptide conjugates flg15-BP387, flg15-BP475, and PIP1-BP475 and the monomers flg15 and PIP1 to reduce bacterial spot infection, caused by X. axonopodis pv. vesicatoria, was tested in potted tomato plant assays (Fig. 4).
FIG 4 Effect of the peptides on the bacterial spot of tomato plant severity. Two independent experiments were performed. Disease severity was evaluated in tomato plants 13 days after pathogen inoculation. A nontreated control (NTC) and a treatment with copper oxychloride were included as references. Values correspond to the mean disease severity of three replicates of three plants per each treatment, and error bars represent the confidence interval (α = 0.05). […] The photographs show the symptoms observed in nontreated (A) and flg15-BP475-treated (B) plants.
The efficacy of peptides in bacterial spot of tomato suppression was determined using whole-plant infection assays with tomato plants (cv. Rio grande) inoculated with X. axonopodis pv. vesicatoria strain 206. Tomato plants (4 weeks old) were sprayed with a hand sprayer (Herkules; Nuair, Robassomero, Italy) with 6 mL of an aqueous suspension of flg15-BP387, flg15-BP475, PIP1-BP475, flg15, and PIP1 at 125 μM. An NTC was included by spraying plants with water. A treatment with 70% copper oxychloride at 2 g/L (Cuprocol; Syngenta, Spain) was also included as a positive control. After 24 h, treated plants were spray-inoculated until the runoff point (6 mL) with a suspension of X. axonopodis pv. vesicatoria at 10^8 CFU/mL mixed with diatomaceous earth at 1 mg/mL. Plants were incubated under controlled greenhouse conditions (25 ± 2°C, 16 h light; 15 ± 2°C, 8 h dark; 60% relative humidity). The experimental design consisted of three replicates of three plants per treatment. Two independent experiments were performed. Severity of infections was determined per each replicate after 13 days of pathogen inoculation ([71]). A severity index, ranging from 0 to 4 (0, no symptoms; 1, necrosis/lesions up to 25% of the leaf surface; 2, necrosis/lesions on 25 to 50% of the leaf surface; 3, severe necrosis/lesions on 50 to 75% of the leaf surface; and 4, severe necrosis/lesions on >75% of the leaf surface), was determined for each of the leaves (with 4 to 5 leaflets) of a plant, and it was used to calculate the disease severity index per plant according to the formula
where S is the severity of the infections per plant, Si is the severity index for each leaf, and n is the number of leaves measured, which is multiplied by the maximum severity index (i.e., 4). Then, the mean of the severity index of the three plants of each replicate was calculated. The effect of peptide treatments on plant material infection was determined using analysis of variance (ANOVA). […]

[2] = tested on: tobacco leaves; assay: Effect of peptide infiltration on tobacco leaves (phytotoxicity); assay type: in vivo
Summary of the method: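 Peptide solutions at 50, 150 and 250 μM were infiltrated into the mesophyll of fully expanded tobacco leaves, with at least three leaves per peptide and dose on different plants. Water and equimolar melittin served as controls. Lesion diameter was measured 48 h after infiltration.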

[3] = 100 μL infiltrated into mesophyll, lesion diameter 48 h after infiltration, at least three leaves, ± confidence interval (α = 0.05)

| Compound | Effect on severity of bacterial spot of tomato [1] | Size of the lesions in infiltrated tobacco leaves at 50 μM [2, 3] [cm] | Size of the lesions in infiltrated tobacco leaves at 150 μM [2, 3] [cm] | Size of the lesions in infiltrated tobacco leaves at 250 μM [2, 3] [cm] | Size of the lesions in infiltrated tobacco leaves at 50 μM ([2]; in vivo) [cm] | Size of the lesions in infiltrated tobacco leaves at 150 μM ([2]; in vivo) [cm] | Size of the lesions in infiltrated tobacco leaves at 250 μM ([2]; in vivo) [cm] |
| --- | --- | --- | --- | --- | --- | --- | --- |
| CCCC(=O)NCCCC[C@H](NC(=O)[C@H](CCCCN)NC(=O)[C@H](CC(C)C)NC(=O)[C@@H](NC(=O)[C@H](CCCCN)NC(=O)[C@H](CCCCN)NC(=O)[C@@H](Cc1ccccc1)NC(=O)[C@H](CC(C)C)NC(=O)[C@H](CCCCN)NC(=O)[C@H](CCCCN)NC(=O)[C@H](Cc1c[nH]cn1)NC(=O)[C@@H](NC(=O)[C@H](Cc1c[nH]cn1)NC(=O)[C@@H](NC(=O)CNC(=O)[C@H](Cc1ccc(O)cc1)NC(C)=O)[C@@H](C)CC)[C@@H](C)O)[C@@H](C)CC)C(=O)N[C@@H](CC(C)C)C(N)=O [PIP1-BP475] (Ac-YGIHTHKKL[dF]KKILKK(Butyryl)L-NH2) | showed the same efficacy in reducing the disease as their respective monomers flg15 and PIP1, except for PIP1-BP475 in one of the experiments | 0.47 ± 0.13 | 1.03 ± 0.06 | 1.17 ± 0.06 |  |  |  |
| CCCC(=O)NCCCC[C@H](NC(=O)[C@H](CCCCN)NC(=O)[C@H](CC(C)C)NC(=O)[C@@H](NC(=O)[C@H](CCCCN)NC(=O)[C@H](CCCCN)NC(=O)[C@@H](Cc1ccccc1)NC(=O)[C@H](CC(C)C)NC(=O)[C@H](CCCCN)NC(=O)[C@H](CCCCN)NC(=O)[C@H](C)NC(=O)[C@@H](NC(=O)[C@H](CCC(N)=O)NC(=O)[C@H](CC(C)C)NC(=O)CNC(=O)[C@H](C)NC(=O)[C@H](C)NC(=O)[C@H](CC(=O)O)NC(=O)[C@H](CC(=O)O)NC(=O)[C@H](CCCCN)NC(=O)[C@H](C)NC(=O)[C@H](CO)NC(=O)[C@H](CC(N)=O)NC(=O)[C@@H](NC(=O)[C@H](CCCNC(=N)N)NC(C)=O)[C@@H](C)CC)[C@@H](C)CC)[C@@H](C)CC)C(=O)N[C@@H](CC(C)C)C(N)=O [flg15-BP475] (Ac-RINSAKDDAAGLQIAKKL[dF]KKILKK(Butyryl)L-NH2) | decreased the severity of the disease compared to treatment with flg15, this reduction being significant in one of the experiments; also recorded: showed the same or more efficacy in reducing disease infection than treatment with copper oxychloride | 0.60 ± 0 | 1.20 ± 0 | 1.37 ± 0.06 |  |  |  |
| RINSAKDDAAGLQIA-OH [flg15, plant defense elicitor peptide, 15 amino acids of the N-terminal conserved domain of bacterial flagellin; monomer] | significantly reduced the severity of bacterial spot of tomato compared to the nontreated control in both experiments | 0 ± 0 | 0 ± 0 | 0 ± 0 |  |  |  |
| YGIHTH-NH2 [PIP1, plant defense elicitor peptide identified through combinatorial chemistry; monomer] | only reduced the severity of the disease in one of the experiments |  |  |  | 0 ± 0 | 0 ± 0 | 0 ± 0 |

Source: article PMC9238401, “Peptide Conjugates Derived from flg15, Pep13, and PIP1 That Are Active against Plant-Pathogenic Bacteria and Trigger Plant Defense Responses” (Applied and Environmental Microbiology, 2022)
